{
  "source": "paper PMC10674565",
  "about": "(Pharmaceuticals, 2023)",
  "molecular_target": "T1, SLCO1B1 (Homo sapiens, UniProt Q9Y6L6)",
  "T1 sequence (Q9Y6L6 1-691)": "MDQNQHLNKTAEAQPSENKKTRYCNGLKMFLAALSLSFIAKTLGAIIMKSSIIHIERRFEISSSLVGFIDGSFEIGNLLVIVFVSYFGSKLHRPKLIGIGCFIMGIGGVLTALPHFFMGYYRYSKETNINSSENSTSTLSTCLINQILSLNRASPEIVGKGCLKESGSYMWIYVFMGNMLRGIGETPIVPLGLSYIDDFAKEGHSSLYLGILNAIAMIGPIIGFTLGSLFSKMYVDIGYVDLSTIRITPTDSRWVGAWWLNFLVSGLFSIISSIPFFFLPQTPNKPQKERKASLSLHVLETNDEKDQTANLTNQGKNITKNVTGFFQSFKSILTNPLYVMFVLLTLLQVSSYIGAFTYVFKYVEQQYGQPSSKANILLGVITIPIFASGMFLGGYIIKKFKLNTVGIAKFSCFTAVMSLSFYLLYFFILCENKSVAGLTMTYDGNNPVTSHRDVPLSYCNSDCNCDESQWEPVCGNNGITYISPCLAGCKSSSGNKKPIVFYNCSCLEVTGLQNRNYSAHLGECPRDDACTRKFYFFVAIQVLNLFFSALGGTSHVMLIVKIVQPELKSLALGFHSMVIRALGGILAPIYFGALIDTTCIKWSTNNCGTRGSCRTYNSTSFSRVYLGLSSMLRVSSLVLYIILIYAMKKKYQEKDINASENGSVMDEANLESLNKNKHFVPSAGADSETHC",
  "assay": "Inhibition of SLCO1B1-mediated uptake of atorvastatin in HEK293-SLCO1B1 cells",
  "assay_type": "in vitro ADME",
  "parameters": "The SLCO1B1 gene was obtained via synthesis and was cloned into the pEGFP-N1 vector; expressed in transfected cells; host or cells: HEK293",
  "method": "As a positive inhibition control, rifampicin at similar concentrations was used. Three independent experiments were performed. […] Proteins were precipitated by adding acetonitrile in a 1:1 ratio to the sample. […] The mobile phase gradient program was as follows: 0-0.6 min-35% A and 65% B, 0.6-5.0 min-5% A and 95% B, 5.0-8.0 min-35% A and 65% B. The flow rate and the column temperature were maintained at 300 μL/min and 35 °C. Aliquots (2 μL) of the extracted samples were injected.",
  "key": {"[1]": {"details": "human, HEK293-SLCO1B1 cells, pH 7.4, probe atorvastatin 1 µM"}},
  "data": [
    {"smiles": "CCc1nc(C)ccc1O.O=C(O)CCC(=O)O", "note": "[EMHPS, 2-Ethyl-6-methyl-3-hydroxypyridine succinate]", "values": [
      {"measurement": "IC50", "value": "12.1 ± 7.64", "unit": "µM"},
      {"measurement": "inhibition at 100 µM", "setting": "[1]", "value": 64.7, "unit": "%"},
      {"measurement": "inhibition at 500 µM", "setting": "[1]", "value": 90.6, "unit": "%"}
    ]}
  ]
}
